This is an account of results in patent US9334249B2, “Inhibitors of cytomegalovirus” (Boehringer Ingelheim International GmbH, priority 2012, dated 2016).

What is called EC50 is the concentration that produces a half-maximal response.

The structures appear in SMILES notation.

Holding throughout (type): cell-based, Human Cytomegalovirus
The test system of test [1] is HCMV AD169 virus. Put plainly: HCMV AD169 CPE assay (MTS dye reduction, MRC-5 cells). Conditions: Human betaherpesvirus 5, AD169, MRC5, 216 h, 9 days, read-out: EC50 (nM) Example A. How it is done:
HCMV AD169 CPE Assay This assay format is a CPE (Cytopathic effect)-based assay that determines the ability of compounds to protect cells against infection with a dye reduction assay (MTS of CellTiter 96® AQueous Non-Radioactive Cell Proliferation Assay from Promega). The conversion of MTS into aqueous, soluble formazan is performed by dehydrogenase enzymes found in metabolically active cells. The quantity of formazan product determined by absorbance at 490 nm is directly proportional to the number of living cells in culture. [table] Serial dilutions of the DMSO stock compound solution are performed using DMSO in columns 2-11 and 14-23. DMSO alone is present in columns 1, 12, 13 and 24. Four μL of the DMSO serial dilutions is obtained and diluted using 96 μL of D-MEM 5% FBS culture medium to obtain 4% DMSO (7×). To perform the assay, 10 μL of the freshly prepared 4% DMSO serial dilution plate is added to the assay plate containing 40 μL of MRC-5 cells plated the day before (10000 cells per well). Twenty μL of diluted virus is added to columns 2-12 and 14-24 and only D-MEM 5% FBS medium to uninfected control (columns 1 and 13) for a final DMSO concentration of 0.6%. The virus dilution is based on the amount of virus required to obtain a Signal-to-Background of 3-4 (generally between 0.1 and 1 μL of virus stock per well or MOI=0.05). The assay plates are incubated at 37° C. with 5% CO2 for 9 days in order to obtain 100% CPE in infected control without compound (columns 12 and 24). Ten μL of freshly mixed room temperature MTS/PMS (1:20 v/v) is added and the plates are incubated at 37° C. with 5% CO2 for 4-5 h (until signal saturation at 2.3 in the 100% CPE control). The plates are sealed with TopSeal for biosafety and read on the Envision plate reader (Perkin-Elmer) or equivalent at OD 492 nm.

In test [2] the test system is HCMV AD169-Bac-Luc2 US2-US6 clone #26 virus. In words: HCMV AD169-Bac luciferase assay (MRC-5 cells). The note with it: Human betaherpesvirus 5, AD169, MRC5, 72 h, read-out: EC50 (nM) Example B. The source says:
HCMV AD169-Bac Luciferase Assay
This assay format is a luciferase reporter-based assay that determines the ability of compounds to inhibit the infection by detecting a luciferase signal decrease following the addition of BIGlo substrate (preparation indicated below) directly in the culture media. Mono-oxygenation of luciferin is catalyzed by luciferase in the presence of Mg2+, ATP and molecular oxygen. The generation of oxyluciferin is a luminescent reaction that can be detected with the proper platereader. Human Cytomegalovirus AD169-Bac is obtained from Dr. Thomas Shenk at Princeton University (reference paper Yu et al. 2002—J. Virol. 76 (5):2316-2328, herein incorporated by reference) and modified by recombineering to introduce a humanized firefly luciferase gene (Luc2) at the US2-US6 position in the HCMV genome. The virus is expanded in MRC-5 cells.
Serial dilutions of the DMSO stock compound solution are performed using DMSO in columns 2-11 and 14-23. DMSO alone is present in columns 1, 12, 13 and 24. Four μL of the DMSO serial dilutions is obtained and diluted using 96 μL of D-MEM 5% FBS culture medium to obtain 4% DMSO (7×).
To perform the assay, 7 μL of the freshly prepared 4% DMSO serial dilution plate is added to the assay plate containing 25 μL of MRC-5 cells plated the day before (10000 cells per well). Seventeen μL of diluted virus is added to columns 2-12 and 14-24 and only D-MEM 5% FBS medium to uninfected control (columns 1 and 13) for a final DMSO concentration of 0.6%. The virus dilution is based on the amount of virus required to obtain the highest luciferase signal possible without CPE (generally between 0.05 and 1 μL of virus stock per well or MOI=0.02). The assay plates are incubated at 37° C. with 5% CO2 for 3 days. Fifteen μL of room temperature BIGlo buffer is added to room temperature assay plates also incubated at room temperature for 15 minutes. The plates are sealed with TopSeal for biosafety and the luminescence signal is read on the TopCount plate reader (Perkin-Elmer) or equivalent.

In test [3] the test system is HCMV AD169 virus. In words: HCMV AD169 qPCR 96-well assay (viral DNA replication, MRC-5 cells). Conditions: Human betaherpesvirus 5, AD169, MRC5, 72 h, qPCR of viral DNA, 3 days, read-out: EC50 (nM) Example C. How it is done: HCMV AD169 qPCR 96-Well Assay
The hCMV quantitative PCR (qPCR) assay evaluates the ability of a compound to inhibit, directly or indirectly, the replication of hCMV viral DNA during the first 72 h following the infection. Compounds that inhibit either entry or the hCMV polymerase are active in this assay. Compounds are tested in the qPCR assay in 96-well plates, using a 9-point dose-response with 8 compounds for each 96-well plate. The assay was adapted from the method described by Schnepf et al., Rapid determination of antiviral drug susceptibility of human cytomegalovirus by real-time PCR, Antiviral Research 81 (2009) 64-67. […]

On to `O=C(Cc1cccc(C(F)(F)F)c1)Nc1ccc(NC(=O)c2cscn2)nc1` [Compound 1027], for which the EC50 with HCMV AD169 virus [1] was determined as 2800 nM. Consider `CC(C(=O)Nc1nc2ccc(NC(=O)c3cscn3)cc2[nH]1)c1cccc(Cl)c1` (stereo not shown) [Compound 1037], for which the EC50 in test [2] worked out at 69 nM.

With `N#Cc1cccc(CC(=O)Nc2nc3ccc(NC(=O)c4cscn4)cc3s2)c1` [Compound 1098], the concentration for a half-maximal effect (EC50) in test [2] worked out at 74 nM. As for `O=C(Cc1ccc(NC(=O)c2cscn2)cc1)Nc1cc(C(F)(F)F)cc(C(F)(F)F)c1` [Compound 1122], the values for the concentration giving a half-maximal response (EC50) (with HCMV AD169 virus [1]; in test [2]) were 142 nM and 110 nM, respectively. On to `O=C(Cc1ccc(NC(=O)c2cscn2)nc1)Nc1cc(C(F)(F)F)cc(C(F)(F)F)c1` [Compound 1131], for which the values for the EC50 (in the test with HCMV AD169 virus [1]; with HCMV AD169 virus [3]; in test [2]) were 1520 nM, 220 nM and 143 nM, respectively.

For `CC(C(=O)Nc1nc2ccc(NC(=O)c3cscn3)cc2n1C)c1cccc(Cl)c1` (stereo not shown) [Compound 1137], the EC50 in the test with HCMV AD169 virus [1] was found to be 1700 nM; in test [2], 1600 nM. The like results for `O=C(Cc1ccc(NC(=O)c2cscn2)cn1)Nc1cc(C(F)(F)F)cc(C(F)(F)F)c1` [Compound 1143] were, in that order, 555 nM and 51 nM. For the compound `O=C(Cn1ccc(NC(=O)c2cscn2)cc1=O)Nc1cccc(C(F)(F)F)c1` [Compound 1148], in test [2], the EC50 was 658 nM. As to `O=C(Cc1cccc(C(F)(F)F)c1)Nc1ccc2nc(NC(=O)c3cscn3)sc2c1` [Compound 1158], the EC50 in the test on HCMV AD169 virus [1] was determined as 250 nM; in the test with HCMV AD169 virus [3], 180 nM; in test [2] it was 45 nM.
